US4948782A, “A method of promoting the growth of domestic animals with erythromycin derivative containing composition” (Kitasato Kenkyusho, priority 1987, dated 1990)
≈ marks a conversion by molar mass, not a printed value. Like-named read-outs stand apart in the source and are kept apart here.

Experiments:
Type in all cases: cell-based
Bacillus subtilis = test: MIC, Bacillus subtilis (BS); settings: read-out: MIC BS
Bacillus cereus IFO 3001 = test: MIC, Bacillus cereus IFO 3001 (BC); settings: Bacillus cereus
Escherichia coli NIHJ = test: MIC, Escherichia coli NIHJ (EC)
[1] = test system: Klebsiella pneumoniae ATCC 10031; test: MIC, Klebsiella pneumoniae ATCC 10031 (KP)
[2] = test system: Staphylococcus aureus ATCC 6538P; test: MIC, Staphylococcus aureus ATCC 6538P (SA(1)); settings: Staphylococcus aureus, ATCC6538P, read-out: MIC SA (1)
Text: (§1) The minimum inhibitory concentrations (MIC: mcg/ml) of the erythromycin derivatives of the present invention and the control erythromycin derivative (*) as the known growth promoting agent on typical test bacteria are shown in the following Tables 1 to 5.
SA(1): Staphylococcus aureus ATCC 6538P

[3] = test system: Staphylococcus aureus FDA 209P; test: MIC, Staphylococcus aureus FDA 209P (SA(2)); settings: Staphylococcus aureus, FDA209P, read-out: MIC SA (2)
Text: as §1
SA(2): Staphylococcus aureus FDA 209P

[4] = IFO3001, Bacillus cereus IFO 3001, read-out: MIC BC
[5] = ATCC10031, Klebsiella pneumoniae ATCC 10031, read-out: MIC KP
[6] = Staphylococcus aureus ATCC 6538P

Structure (SMILES)	MIC (Bacillus subtilis) [µg/mL]	MIC (Bacillus cereus IFO 3001; [4]) [µg/mL]	MIC (Escherichia coli NIHJ) [µg/mL]	MIC [1, 5] [µg/mL]	MIC [2, 6] [µg/mL]	MIC ([3]; Staphylococcus aureus FDA 209P) [µg/mL]	MIC (Bacillus cereus IFO 3001; IFO3001, read-out: MIC BC) [µg/mL]	MIC ([1]; Klebsiella pneumoniae, ATCC10031, read-out: MIC KP) [µg/mL]	MIC [2] [µg/mL]	MIC [3] [µg/mL]
CCC1OC(=O)C(C)C(OC2CC(C)(OC)C(O)C(C)O2)C(C)C(OC2OC(C)CC([N+]3(CC)CCCC3)C2O)C2(C)CC(C)=C(O2)C(C)C(O)C1(C)O (stereo not drawn) [Compound 24]	> 100	> 100	> 100	> 100	> 100	> 100				
C#CC[N+](CC=C)(CC=C)C1CC(C)OC(OC2C(C)C(OC3CC(C)(OC)C(O)C(C)O3)C(C)C(=O)OC(CC)C(C)(O)C(O)C(C)C3=C(C)CC2(C)O3)C1O (stereo not drawn) [Compound 47]	100	50	> 100	> 100	100	100				
CCC1OC(=O)C(C)C(OC2CC(C)(OC)C(O)C(C)O2)C(C)C(OC2OC(C)CC([N+](C)(C)CCO)C2O)C2(C)CC(C)=C(O2)C(C)C(O)C1(C)O (stereo not drawn) [Compound 15]	> 100	> 100	> 100	> 100	> 100	> 100				
CCC1OC(=O)C(C)C(OC2CC(C)(OC)C(O)C(C)O2)C(C)C(OC2OC(C)CC(N(C)CC)C2O)C2(C)CC(C)=C(O2)C(C)C2OC(=O)OC12C (stereo not drawn) [Compound 54]	> 100	> 100	> 100	> 100	> 100	> 100				
CCC1OC(=O)C(C)C(OC2CC(C)(OC)C(O)C(C)O2)C(C)C(OC2OC(C)CC([N+](C)(C)C)C2O)C2(C)CC(C)=C(O2)C(C)C(OS(C)(=O)=O)C1(C)O (stereo not drawn) [Compound 3]	> 100	> 100	> 100	> 100	> 100	> 100				
CCC1OC(=O)C(C)C(OC2CC(C)(OC)C(O)C(C)O2)C(C)C(OC2OC(C)CC([N+](C)(C)C)C2OC(C)=O)C2(C)CC(C)=C(O2)C(C)C(O)C1(C)O (stereo not drawn) [Compound 7]	> 100	> 100	> 100	> 100	100	> 100				
C#CC[N+](C)(C)C1CC(C)OC(OC2C(C)C(OC3CC(C)(OC)C(O)C(C)O3)C(C)C(=O)OC(CC)C3(C)OC(=O)OC3C(C)C3=C(C)CC2(C)O3)C1O (stereo not drawn) [Compound 57]	50	25	> 100	> 100	25	50				
CC[C@H]1OC(=O)[C@H](C)[C@@H](O[C@H]2C[C@@](C)(OC)[C@@H](O)[C@H](C)O2)[C@H](C)[C@@H](O[C@@H]2O[C@H](C)C[C@H](N(C)C)[C@H]2O)[C@](C)(O)C[C@@H](C)C(=O)[C@H](C)[C@@H](O)[C@]1(C)O [*3, Erythromycin A, reference compound]	0.2 (≈ 0.273 µM)		25 (≈ 34.1 µM)				0.2 (≈ 0.273 µM)	6.25 (≈ 8.52 µM)	0.2 (≈ 0.273 µM)	0.4 (≈ 0.545 µM)
CCC1OC(=O)C(C)C(OC2CC(C)(OC)C(O)C(C)O2)C(C)C(OC2OC(C)CC(N3CCCCC3)C2O)C2(C)CC(C)=C(O2)C(C)C(O)C1(C)O (stereo not drawn) [Compound 22]	> 100	> 100	> 100	> 100	> 100	> 100				
CCC1OC(=O)C(C)C(OC2CC(C)(OC)C(O)C(C)O2)C(C)C(OC2OC(C)CC([N+](C)(C)CCF)C2O)C2(C)CC(C)=C(O2)C(C)C(O)C1(C)O (stereo not drawn) [Compound 32]	> 100	> 100	> 100	> 100	> 100	> 100				

Continued, in another order:

MIC (Bacillus subtilis) [µg/mL]	MIC (Bacillus cereus IFO 3001; [4]) [µg/mL]	MIC (Escherichia coli NIHJ) [µg/mL]	MIC [1, 5] [µg/mL]	MIC [2, 6] [µg/mL]	MIC ([3]; Staphylococcus aureus FDA 209P) [µg/mL]	Structure (SMILES)	MIC (Bacillus cereus IFO 3001; IFO3001, read-out: MIC BC) [µg/mL]	MIC ([1]; Klebsiella pneumoniae, ATCC10031, read-out: MIC KP) [µg/mL]	MIC [2] [µg/mL]	MIC [3] [µg/mL]
> 100	> 100	> 100	> 100	> 100	> 100	CCC1OC(=O)C(C)C(OC2CC(C)(OC)C(O)C(C)O2)C(C)C(OC2OC(C)CC(NC)C2O)C2(C)CC(C)=C(O2)C(C)C(O)C1(C)O (stereo not drawn) [Compound 8]				
> 100	> 100	> 100	> 100	> 100	> 100	C#CCN(C)C1CC(C)OC(OC2C(C)C(OC3CC(C)(OC)C(O)C(C)O3)C(C)C(=O)OC(CC)C(C)(O)C(O)C(C)C3=C(C)CC2(C)O3)C1O (stereo not drawn) [Compound 35]				
> 100	> 100	> 100	> 100	> 100	> 100	CCCCN(C)C1CC(C)OC(OC2C(C)C(OC3CC(C)(OC)C(O)C(C)O3)C(C)C(=O)OC(CC)C(C)(O)C(O)C(C)C3=C(C)CC2(C)O3)C1O (stereo not drawn) [Compound 11]				
> 100	> 100	> 100	> 100	> 100	> 100	C#CCN(CC#C)C1CC(C)OC(OC2C(C)C(OC3CC(C)(OC)C(O)C(C)O3)C(C)C(=O)OC(CC)C(C)(O)C(O)C(C)C3=C(C)CC2(C)O3)C1O (stereo not drawn) [Compound 40]				
